Read-outs that look alike come from different tables or passages of the source.

Series [1] can be described thus: Rat plasma pharmacokinetics after single-dose vehicle/SLE and digoxin or GE. The series is classed as in vivo, Sprague-Dawley rats. Conditions: for AUC(0-inf): read-out: AUCINF_obs; for MRT inf: read-out: MRTINF_obs; for Effect of SLE treatment on Cmax / Increase of AUC (AUC0-∞) by coadministration of SLE: single-dose SLE 500 mg/kg vs vehicle, GE ig. As for the experimental part:
This study was carried out in strict accordance with the recommendations in the Guide for the Care and Use of Laboratory Animals of the National Institutes of Health. The protocol was approved by the Committee on the Ethics of Animal Experiments of the China Pharmaceutical University. All surgery was performed under sodium pentobarbital anesthesia, and all efforts were made to minimize suffering. Female healthy Sprague-Dawley rats (200±20 g) were purchased from the Laboratory Animal Center of Peking University Health Science Center (Beijing, PR China) and kept in an environmentally controlled breeding room for at least 3 days before experimentation. The rats were fed with standard laboratory food and water and fasted overnight but with free access to water before the test. To evaluate the effect of single treatment of SLE on the pharmacokinetics of ginsenosides, 24 rats were divided into four groups (group I ∼ group IV) averagely. […] In group II (control group): the rats received a single dose of vehicle (0.5% CMC-Na), and digoxin (0.5 mg/kg) was also given to the rats by intragastric administration. […] In group IV (control group): the rats received a single dose of vehicle (0.5% CMC-Na), and GE (120 mg/kg) was also given to the rats by gavage. […] Plasma was obtained by centrifugation at 5000 g for 10 min and stored at −20°C before analysis. The plasma / cell samples were extracted using a liquid–liquid extraction technique. To each tube containing 100 µL plasma, 10 µL internal standard (digoxin, 1.0 µg/mL) and 1.0 mL of n-butanol were added. The mixture was then vortex-extracted for 2 min, and centrifuged for 10 min at 10,000 g. […] The plasma concentration-time curves of ginsenosides in rats were obtained by plotting the mean plasma concentrations versus time. Pharmacokinetic parameters were calculated using the WinNonlin 6.3 program (Pharsight Inc., Mountain View, CA). The elimination half-life (t 1/2) value was calculated as 0.693/β, where β is the elimination rate constant calculated from the terminal linear portion of the log plasma concentration-time curve. The total areas under the plasma concentration- time curve from time 0 to the last quantifiable time point (AUC0-t) and from time 0 to infinity (AUC0-∞) were calculated using the log trapezoidal rule. [drawing 3] The maximum plasma concentrations (C max) for ginsenosides were obtained by visual inspection of the plasma concentration-time curve, whereas the initial drug concentration (the extrapolated concentration at zero time) of the drug after intravenous injection was calculated by back-extrapolation of the plasma concentration-time curve to the y-axis.

The subject of another series is Caco-2 cell monolayer. Put plainly: Transport of digoxin and ginsenosides across Caco-2 cell monolayer (efflux ratio). The series is classed as in vitro ADME, human. As for the experimental part:
Caco-2 cells were purchased from American Type Culture Collection (Manassas, VA), and were routinely cultured in Dulbecco's modified Eagle's medium supplemented with 10% fetal bovine serum, 1% nonessential amino acids, 1 mM sodium pyruvate, and 100 U/mL penicillin and streptomycin (Invitrogen, Carlsbad, CA). The cells were grown in an atmosphere of 5% CO2 at 37°C, and cell medium was changed every other day. Cells were seeded at a density of 4×10^4 cells per well in 24-well microporous polycarbonate insert filter plates (0.4-µm pore size) (Corning Costar plates; Corning Life Sciences, Lowell, MA) and grown for 15 days in Caco-2 growth medium. The medium was replaced every 3 to 4 days. Before running the assay, the culture medium was replaced by HBSS buffer supplemented with 10 mM Hepes and 20 mM glucose.
Caco-2 cells with a density of 1.2×10^5 cells/insert were seeded on a permeable polycarbonate insert (Millicell cell culture inserts, 0.4 µm pore size, 12 mm diameter; Millipore Corporation) in 24-well tissue culture plates and were used for the experiment 18 to 21 days after seeding. [^14C]Mannitol permeability and transepithelial electrical resistance measurements (Millicell-ERS epithelial volt-ohm meter; Millipore Corporation) were used to evaluate the integrity of Caco-2 cell monolayer. The monolayer used in transport studies had transepithelial electrical resistance values exceeding 600 Ω·cm^2, and the leakage of mannitol was less than 0.3% of the dose/h. Before transport initiation studies, the cell monolayer was first washed with warm HBSS (pH 7.4) twice. HBSS containing SLE (2.0 and 10.0 µg/mL) or 1% ethanol (control) was then loaded into both apical and basolateral chambers. After incubation at 37°C for 1.5 h, 100 µg/mL of GE was added to either the apical or basolateral side to evaluate the transport in absorptive and secretory directions, and the cell monolayer was incubated for another 2 h. 10 µM verapamil was used as a positive control inhibitor. At the designated time point, samples were taken from the receiving chamber for analysis. Ginsenosides were determined by LC-MS. All experiments were conducted in triplicate.
For the transport assay, the apparent permeability (P app, cm/s) in each direction (A→B and B→A) was calculated as follows, where A is the surface area of the membrane inserts (0.0804 cm^2), C 0 is the initial concentration of the compound applied in the donor compartment (2 µM), and △Q is the amount (micromoles) of compound transported over time △t (5 h = 18,000 s): [drawing 1]
The efflux ratio (ER) was a dimensionless number calculated as the ratio of the apparent permeability in the B→A direction divided by the apparent permeability in the A→B direction. [drawing 2]
A general note: Caco-2 monolayers are a common model of the intestinal barrier.

Setting [2] is: female, Sprague-Dawley, rat, plasma, po, rats, control: single vehicle (0.5% sodium CMC), 2 h later digoxin 0.5 mg/kg or GE 120 mg/kg ig, read-out: t1/2 (converted).
The mark [3] stands for this setting: female, Sprague-Dawley, rat, plasma, po, rats, control: single vehicle, 2 h later digoxin 0.5 mg/kg or GE 120 mg/kg ig.
[4] abbreviates: female, Sprague-Dawley, rat, plasma, po, rats, control: single vehicle, 2 h later digoxin 0.5 mg/kg or GE 120 mg/kg ig, read-out: Tmax.
Setting [5] is: female, Sprague-Dawley, rat, plasma, po, rats, single SLE 500 mg/kg ig, 2 h later digoxin 0.5 mg/kg or GE 120 mg/kg ig.
Setting [6] is: female, Sprague-Dawley, rat, plasma, po, rats, single SLE 500 mg/kg ig, 2 h later digoxin 0.5 mg/kg or GE 120 mg/kg ig, read-out: Tmax.
Where [7] appears, read: female, Sprague-Dawley, rat, plasma, po, rats, single SLE 500 mg/kg ig, 2 h later digoxin 0.5 mg/kg or GE 120 mg/kg ig, read-out: t1/2 (converted).
[8] abbreviates: rats, control: single vehicle, 2 h later digoxin 0.5 mg/kg or GE 120 mg/kg ig.
The mark [9] stands for this setting: rats, single SLE 500 mg/kg ig, 2 h later digoxin 0.5 mg/kg or GE 120 mg/kg ig.
Where [10] appears, read: female, Sprague-Dawley, rat, in vivo, po.

Consider `C[C@H]1O[C@@H](O[C@H]2[C@@H](O)C[C@H](O[C@H]3[C@@H](O)C[C@H](O[C@H]4CC[C@@]5(C)[C@H](CC[C@@H]6[C@@H]5C[C@@H](O)[C@]5(C)[C@@H](C7=CC(=O)OC7)CC[C@]65O)C4)O[C@@H]3C)O[C@@H]2C)C[C@H](O)[C@@H]1O` [Digoxin, digoxin, reference compound], for which the half-life is 3.08 ± 1.23 h in series [1] (setting [2]) and 2.98 ± 0.36 h in series [1] (setting [7]). Further, the exposure (AUC) – broadly, the area under the concentration-time curve, a measure of exposure – in series [1] (setting [3]) was 61.8 ± 13.4 ng·h/mL; in series [1] (setting [5]) it was 84.4 ± 7.25 ng·h/mL. Moreover, the results for the Cmax in series [1] (setting [3]) and in series [1] (setting [5]) were 15 ± 5.07 ng/mL and 17.5 ± 2.26 ng/mL, respectively. In addition, the AUC(0-inf) in series [1] (setting [3]) stood at 67.5 ± 13.4 ng·h/mL; in series [1] (setting [5]), 91 ± 8.39 ng·h/mL. In addition, the MRT inf in series [1] (setting [3]) was 5.15 ± 1.09 h; in series [1] (setting [5]) it was 5.06 ± 0.42 h. Moreover, the figures for the time to peak (Tmax) in series [1] (setting [4]) and in series [1] (setting [6]) were 1.28 ± 0.36 h and 1.58 ± 0.38 h, respectively. Besides, the values for the Cl_F_obs in series [1] (setting [8]) and in series [1] (setting [9]) were 7.66 ± 1.53 L/h and 5.53 ± 0.48 L/h, respectively.

On to `CC(C)=CCC[C@](C)(O[C@@H]1O[C@H](CO[C@@H]2OC[C@H](O)[C@H](O)[C@H]2O)[C@@H](O)[C@H](O)[C@H]1O)[C@H]1CC[C@]2(C)[C@@H]1[C@H](O)C[C@@H]1[C@@]3(C)CC[C@H](O[C@@H]4O[C@H](CO)[C@@H](O)[C@H](O)[C@H]4O[C@@H]4O[C@H](CO)[C@@H](O)[C@H](O)[C@H]4O)C(C)(C)[C@@H]3CC[C@]12C` [Rb2, ginsenoside Rb2], for which the half-life in series [1] (setting [2]) is 19.4 ± 2.87 h. Besides, in series [1] (setting [3]), the AUC was 10200 ± 1710 ng·h/mL, the peak level (Cmax) was 330 ± 70.9 ng/mL, the AUC(0-inf) was determined as 10600 ± 1730 ng·h/mL and the MRT inf came out at 27.9 ± 4.2 h. Also, the Tmax (commonly the time from dosing to the highest level) in series [1] (setting [4]) is 7 ± 2 h. For the same molecule, in series [1] (setting [5]), the AUC was determined as 22300 ± 5270 ng·h/mL; the peak concentration (Cmax) – broadly, the highest concentration seen after dosing – was 541 ± 45 ng/mL; the AUC(0-inf) is 23200 ± 5570 ng·h/mL; the MRT inf came out at 25.2 ± 3.63 h. In addition, in series [1] (setting [6]), the Tmax worked out at 9.5 ± 3 h. In addition, in series [1] (setting [7]), the half-life is 19 ± 3.84 h. For the same molecule, in series [1] (setting [8]), the AUCINF_obs was 10551 ± 1728 ng·h/mL and the Cl_F_obs is 0.012 ± 0.003 L/h. For the same molecule, in series [1] (setting [9]), the AUCINF_obs was 23198 ± 5566 ng·h/mL and the Cl_F_obs is 0.004 ± 0.001 L/h. In addition, in series [1] (rats), the “Effect of SLE treatment on Cmax” value is reported as “significantly enhanced” and the “Increase of AUC (AUC0-∞) by coadministration of SLE” value amounted to 2.18 fold.

As for `CC(C)=CCC[C@](C)(O[C@@H]1O[C@H](CO[C@@H]2O[C@@H](CO)[C@H](O)[C@H]2O)[C@@H](O)[C@H](O)[C@H]1O)[C@H]1CC[C@]2(C)[C@@H]1[C@H](O)C[C@@H]1[C@@]3(C)CC[C@H](O[C@@H]4O[C@H](CO)[C@@H](O)[C@H](O)[C@H]4O[C@@H]4O[C@H](CO)[C@@H](O)[C@H](O)[C@H]4O)C(C)(C)[C@@H]3CC[C@]12C` [Rc, ginsenoside Rc], the Tmax in series [1] (setting [10]) turned out to be 9.00 ± 2.00 h; in series [1] (female, Sprague-Dawley, rat, in vivo, po, Tmax), 9.5 ± 3 h. The t1/2 in series [1] (setting [10]) came to 16.90 ± 2.14 h. Further, in series [1] (female, Sprague-Dawley, rat, in vivo, po, t1/2), the half-life was 17.3 ± 4.54 h.

On to `CC(C)=CCC[C@](C)(O[C@@H]1O[C@H](CO)[C@@H](O)[C@H](O)[C@H]1O)[C@H]1CC[C@]2(C)[C@@H]1[C@H](O)C[C@@H]1[C@@]3(C)CC[C@H](O[C@@H]4O[C@H](CO)[C@@H](O)[C@H](O)[C@H]4O[C@@H]4O[C@H](CO)[C@@H](O)[C@H](O)[C@H]4O)C(C)(C)[C@@H]3CC[C@]12C` [Rd, ginsenoside Rd], for which the half-life in series [1] (setting [2]) is 75.4 ± 42.7 h. Besides, in series [1] (setting [3]), the AUC stood at 5350 ± 1400 ng·h/mL, the Cmax was 237 ± 79 ng/mL, the AUC(0-inf) amounted to 7410 ± 2180 ng·h/mL and the MRT inf was 21.6 ± 49 h. Also, in series [1] (setting [4]), the Tmax is 7.5 ± 1 h. In series [1] (setting [5]), the area under the curve (AUC) came out at 7960 ± 2000 ng·h/mL, the highest level (Cmax) was 227 ± 57.8 ng/mL, the AUC(0-inf) amounted to 9040 ± 2200 ng·h/mL and the MRT inf amounted to 25.1 ± 7.45 h. Moreover, the time of peak concentration (Tmax) in series [1] (setting [6]) turned out to be 7.5 ± 1 h. In series [1] (setting [7]), the half-life was 21.8 ± 6.78 h. In series [1] (setting [8]), this molecule had a Cl_F_obs of 0.014 ± 0.003 L/h. Moreover, in series [1] (setting [9]), the Cl_F_obs was 0.011 ± 0.003 L/h. Further, in series [1] (rats), the “Effect of SLE treatment on Cmax” value is “not dramatically changed” and the “Increase of AUC (AUC0-∞) by coadministration of SLE” value came out at 1.86 fold. In the series with Caco-2 cell monolayer (Caco-2 cells, 10 µM verapamil), the “Effect of verapamil on efflux ratio” value is “decreased significantly”. For the same molecule, the “Effect of SLE on BL-AP transport / efflux ratio” value in the series on Caco-2 cell monolayer (Caco-2 monolayer, SLE 2.0 and 10.0 µg/mL) was “concentration dependently decrease”.

Source of the values: publication PMC4055595, “Pharmacokinetic Compatibility of Ginsenosides and Schisandra Lignans in Shengmai-san: From the Perspective of P-Glycoprotein” (PLoS ONE, 2014).
